One molecule from ChEMBL document CHEMBL4359842 (J Med Chem, 2019) can be followed below.

Series [1] concerns Mus musculus. As to the kind of experiment: In vivo inhibition of […] phosphorylation in hippocampus of APPswe/PS1dE9 double mutant-transgenic mouse model at 30 mg/kg, ip administered once daily for 12 weeks measured post-last dose by Western blot analysis. It is filed as functional, organism-based. On the technique in general: Immunoblotting shows a protein as a band on a membrane.

Series [2] can be described thus: Toxicity in APPswe/PS1dE9 double mutant-transgenic mouse model assessed as effect on time to reach target quadrant at 15 to 30 mg/kg, ip administered once daily for 12 weeks measured 48 hrs after training trial by morris water maze test. It is filed as organism-based. The following applies: in vivo.
Series [3] can be described thus: Mean residence time in APPswe/PS1dE9 double mutant-transgenic mouse at 3 mg/kg, iv administered as single dose by LC-MS/MS analysis. Type of series: ADME, organism-based. The following applies: in vivo.
Series [4] can be described thus: Ratio of drug level in APPswe/PS1dE9 double mutant-transgenic mouse brain to plasma at 30 mg/kg, ip administered as single dose measured after 2 hrs by LC-MS/MS analysis. Type of series: ADME, organism-based. The following applies: read-out: BPR.
Series [5] concerns Mus musculus. As to the kind of experiment: In vivo inhibition of JNK in APPswe/PS1dE9 double mutant-transgenic mouse model assessed as reduction in Tau phosphorylation at Ser235 residue in hippocampus at 30 mg/kg, ip administered once daily for 12 weeks measured post-last dose by Western blot analysis. It is filed as functional, organism-based.
Series [6] can be described thus: Bioavailability in APPswe/PS1dE9 double mutant-transgenic mouse at 30 mg/kg, ip administered as single dose by LC-MS/MS analysis. Type of series: ADME, organism-based. Particulars: in vivo.
A short description of series [7]: Drug level in APPswe/PS1dE9 double mutant-transgenic mouse brain at 30 mg/kg, ip administered as single dose measured after 8 hrs by LC-MS/MS analysis. Particulars: read-out: Drug uptake. It is filed as ADME, organism-based.
A short description of series [8]: Toxicity in APPswe/PS1dE9 double mutant-transgenic mouse assessed as change in body weight at 15 to 30 mg/kg, ip administered once daily for 12 weeks and measured every week during compound dosing. It is filed as organism-based. The following applies: in vivo, 2016 h.
For series [9], the system named is Mus musculus. As to the kind of experiment: Improvement in spatial memory impairment in ip dosed APPswe/PS1dE9 double mutant-transgenic mouse model assessed as decrease in area occupied by fibrillar plaque in hippocampus administered once daily for 12 weeks measured post-last dose by thioflavin S staining-based fluorescence microscopic analysis. It is filed as functional, organism-based.

Series [10] in a line: Primary phase half life in APPswe/PS1dE9 double mutant-transgenic mouse at 30 mg/kg, ip administered as single dose by LC-MS/MS analysis. It is filed as ADME, organism-based. Particulars: in vivo, read-out: alphat1/2 (converted).
Series [11] has as its system Mus musculus. In words: In vivo inhibition of […] phosphorylation in cortex of APPswe/PS1dE9 double mutant-transgenic mouse model at 30 mg/kg, ip administered once daily for 12 weeks measured post-last dose by Western blot analysis. Type of series: functional, organism-based.
A short description of series [12]: Tmax in APPswe/PS1dE9 double mutant-transgenic mouse at 30 mg/kg, ip administered as single dose by LC-MS/MS analysis. Type of series: ADME, organism-based. Particulars: in vivo.
The target of series [13] is T1, Mitogen-activated protein kinase 10 (Homo sapiens, UniProt P53779). In words: Inhibition of recombinant human full-length JNK3 at 10 uM using ATF2 as substrate measured after 40 mins in presence of [gamma33P]ATP by scintillation counting analysis relative to control.
T1 sequence (P53779 whole entry, the tested form may be a part): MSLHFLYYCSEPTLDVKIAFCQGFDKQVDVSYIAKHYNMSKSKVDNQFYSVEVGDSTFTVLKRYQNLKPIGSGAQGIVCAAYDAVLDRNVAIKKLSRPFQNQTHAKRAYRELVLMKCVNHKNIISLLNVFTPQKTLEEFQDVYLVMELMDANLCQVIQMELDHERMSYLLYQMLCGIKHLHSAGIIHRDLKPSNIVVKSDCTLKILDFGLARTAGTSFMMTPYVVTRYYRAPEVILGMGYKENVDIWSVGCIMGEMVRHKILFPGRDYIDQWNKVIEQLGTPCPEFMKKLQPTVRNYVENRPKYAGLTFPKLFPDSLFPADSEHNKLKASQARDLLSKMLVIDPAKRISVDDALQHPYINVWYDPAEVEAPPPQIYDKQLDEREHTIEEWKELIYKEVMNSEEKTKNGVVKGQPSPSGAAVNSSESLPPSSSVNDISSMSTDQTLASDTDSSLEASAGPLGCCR
For series [14], the system named is Mus musculus. In words: Improvement in spatial memory impairment in ip dosed APPswe/PS1dE9 double mutant-transgenic mouse model assessed as decrease in area occupied by diffused plaque in cortex administered once daily for 12 weeks measured post-last dose by thioflavin S staining-based fluorescence microscopic analysis. Type of series: functional, organism-based.

Series [15] concerns the target T1, Mitogen-activated protein kinase 10. As to the kind of experiment: Inhibition of recombinant human full-length JNK3 using ATF2 as substrate measured after 40 mins in presence of [gamma33P]ATP by scintillation counting analysis.
In series [16] the test system is Mus musculus. As to the kind of experiment: Improvement in spatial memory impairment in APPswe/PS1dE9 double mutant-transgenic mouse model assessed as increase in duration of time spent in target quadrant at 15 to 30 mg/kg, ip administered once daily for 12 weeks measured 24 hrs after training trial by morris water maze test. Type of series: functional, organism-based.

In series [17] the test system is Mus musculus. In words: In vivo inhibition of JNK in APPswe/PS1dE9 double mutant-transgenic mouse model assessed as reduction in APP phosphorylation at Thr668 residue in cortex at 30 mg/kg, ip administered once daily for 12 weeks measured post-last dose by Western blot analysis. Type of series: functional, organism-based.
Series [18] is described as follows: Terminal half life in APPswe/PS1dE9 double mutant-transgenic mouse at 30 mg/kg, ip administered as single dose by LC-MS/MS analysis. Type of series: ADME, organism-based. Particulars: in vivo, read-out: beta t1/2 (converted).
Series [19] in a line: Terminal half life in APPswe/PS1dE9 double mutant-transgenic mouse at 3 mg/kg, iv administered as single dose by LC-MS/MS analysis. Type of series: ADME, organism-based. The following applies: in vivo, read-out: beta t1/2 (converted).
A short description of series [20]: Ratio of drug level in APPswe/PS1dE9 double mutant-transgenic mouse brain to plasma at 30 mg/kg, ip administered as single dose measured after 8 hrs by LC-MS/MS analysis. Type of series: ADME, organism-based. The following applies: read-out: BPR.
Series [21] in a line: Clearance in APPswe/PS1dE9 double mutant-transgenic mouse at 3 mg/kg, iv administered as single dose by LC-MS/MS analysis. It is filed as ADME, organism-based. Particulars: in vivo.
The test system of series [22] is Mus musculus. In words: Effect on acquisition latency time in APPswe/PS1dE9 double mutant-transgenic mouse model at 15 to 30 mg/kg, ip administered once daily for 12 weeks measured post-last dose by step-through passive avoidance test. Type of series: ADME, organism-based. The following applies: in vivo, 2016 h.
Another series concerns SH-SY5Y. In words: Neuroprotective activity against amyloid beta (25 to 35 residues)-induced cell death in human SH-SY5Y cells assessed as increase in cell viability at 1 to 10 uM preincubated for 1 hr followed by amyloid beta (25 to 35 residues) addition and measured after 72 hrs by MTT assay. Type of series: functional, cell-based. In general terms: Formazan colour is commonly taken as a measure of viable cells.

Activity calls are given as the source filed them. The calls are words filed in the database; no cut-off is given here.

As for `O=C1N/C(=N/c2ccccc2Cl)S/C1=C1\C(=O)Nc2ccc(F)cc21`, the inhibition result in the series on Mus musculus [1], with Mus musculus [5], in the series with Mus musculus [11] and in the series on Mus musculus [17] was “Active” each time. Besides, the Activity entry in series [2] was “Non-Toxic”; in [8], “Non-Toxic”; with Mus musculus [9], “Dose-dependent effect”; in the series on Mus musculus [14], “Dose-dependent effect”; in the series with Mus musculus [22] it was “Non-Toxic”. The molecule further gave an MRT in series [3] of 1.61 h. The Kp at 2 h in series [4] is 0.135. In [6], this molecule yielded a bioavailability of 90.5%. In addition, the concentration at 8 h in [7] turned out to be 30.7 ng/g. Also, the half-life in series [10] was 0.34 h; in [18], 16.1 h; in series [19] it was 8.83 h. In series [12], the Tmax was found to be 0.4 h. Also, the inhibition in series [13] came out at 99%. Besides, the IC50 in series [15] is 40 nM. Further, the outcome in the series on Mus musculus [16] and in the series on SH-SY5Y was Active. Besides, in [20], the Kp at 8 h was 0.4. For the same molecule, the clearance in [21] is 24.2 mL/min/kg.

As a reminder, the inhibition is the change of the read-out against control, counted positive when it falls. As a reminder, the MRT is a mean duration of stay, worked out from the concentration-time curve. What is called bioavailability is the share of a dose that reaches the circulation, judged against a reference dose that is usually intravenous. Usually Tmax stands for the time at which the peak concentration occurs. Usually IC50 stands for the point on the concentration scale where inhibition reaches its midpoint. In general, clearance refers to the volume of plasma or blood freed of the substance per unit of time. Higher therefore signals a high capacity for elimination.
